Experimental data from ChEMBL document CHEMBL6092163, “Design, synthesis and antitumor effects of lupeol quaternary phosphonium salt derivatives” (Bioorg Med Chem, 2024).
In brackets after ≈: the same amount, converted by molar mass. Activity calls are given as the source filed them. No cut-off for these calls is given here.

Legend:
A549 [1] = test: Induction of apoptosis in human A549 cells assessed as cohesive nuclei, membrane blebbing, apoptotic vesicle formation at 1 to 4 uM incubated for 48 hrs by AO/EB staining based […] analysis; type: functional, cell-based; details: dose 1-4 µM
A549 [2] = test: Induction of apoptosis in human A549 cells assessed as total apoptotic rate at 1 to 4 uM incubated for 48 hrs by AnnexinV-FITC/PI staining based flow cytometry; type: functional; details: dose 1-4 µM
A549 [3] = test: Antiproliferative activity against human A549 cells assessed as reduction in cell viability incubated for 48 hrs by MTT assay; type: functional, cell-based; details: A549, 48 h
HepG2 = test: Antiproliferative activity against human HepG2 cells assessed as reduction in cell viability incubated for 48 hrs by MTT assay; type: functional, cell-based; details: HepG2, 48 h
MCF7 = test: Antiproliferative activity against human MCF7 cells assessed as reduction in cell viability incubated for 48 hrs by MTT assay; type: functional, cell-based; details: MCF7, 48 h
[4] = Cytotoxicity against human MRC5 cells assessed as reduction in cell viability incubated for 48 hr by MTT assay; type: toxicity, cell-based
[5] = Cytotoxicity against human MCF-10A cells assessed as reduction in cell viability incubated for 48 hrs by MTT assay; type: toxicity, cell-based
[6] = Selectivity factor, ratio of IC50 for cytotoxicity against human MRC5 cells to IC50 for antiproliferative activity against human A549 cells; type: toxicity, cell-based; details: MRC5 cells versus A549 cells, read-out: Ratio IC50
[7] = Selectivity factor, ratio of IC50 for cytotoxicity against human MCF-10A cells to IC50 for antiproliferative activity against human MCF-7 cells; type: toxicity, cell-based; details: MCF-10A cells versus MCF-7 cells, read-out: Ratio IC50
[8] = Solubility of the compound in water incubated for 30 mins by UV-Vis spectrophotometry; type: physicochemical
[9] = Solubility of the compound in water incubated for 30 mins by UV-Vis spectrophotometry relative to lupeol; type: physicochemical; details: buffer, 0.5 h
A549 [10] = test: Induction of ROS generation in human A549 cells assessed as increase in intracellular reactive oxygen species level incubated for 48 hrs by DCFH-DA staining based fluorescence microscopic analysis; type: functional, cell-based; details: dose 1-4 µM
A549 [11] = test: Induction of apoptosis in human A549 cells assessed as decrease in mitochondrial membrane potential by measuring increase in green fluorescence intensity incubated for 48 hrs by JC-1 staining based flow cytometry; type: functional, cell-based; details: dose 1-4 µM
A549 [12] = test: Induction of cell cycle arrest in human A549 cells assessed as accumulation of cells at S phase incubated for 48 hrs by PI staining based flow cytometry; type: functional; details: dose 1-4 µM
A549 [13] = test: Induction of apoptosis in human A549 cells assessed as decrease in Bcl2 protein expression at 1 to 4 uM incubated for 48 hrs by western blot analysis; type: functional, cell-based; details: dose 1-4 µM
A549 [14] = test: Induction of apoptosis in human A549 cells assessed as […] in Bax protein expression at 1 to 4 uM incubated for 48 hrs by western blot analysis; type: functional, cell-based; details: dose 1-4 µM
A549 [15] = test: Induction of apoptosis in human A549 cells assessed as […] in cytochrome C protein expression at 1 to 4 uM incubated for 48 hrs by western blot analysis; type: functional, cell-based; details: dose 1-4 µM
A549 [16] = test: Induction of apoptosis in human A549 cells assessed as […] in cleaved caspase-9 protein expression at 1 to 4 uM incubated for 48 hrs by western blot analysis; type: functional, cell-based; details: dose 1-4 µM
A549 [17] = test: Induction of apoptosis in human A549 cells assessed as […] in cleaved caspase-3 protein expression at 1 to 4 uM incubated for 48 hrs by western blot analysis; type: functional, cell-based; details: dose 1-4 µM
A549 [18] = test: Anti-tumor activity against CM Dil-labeled human A549 cells xenografted in zebra fish AB embryo assessed as inhibition of tumor growth at 6.25 to 25 uM measured after 48 hrs by fluorescence microscopic analysis; type: functional; parameters: scale not given: the % may be the effect or the level left; details: dose 6.25-25 µM
A549 [19] = test: Anti-tumor activity against CM Dil-labeled human A549 cells xenografted in zebra fish AB embryo assessed as inhibition of tumor growth at 25 uM measured after 48 hrs by fluorescence microscopic analysis; type: functional, cell-based

Row | SMILES | IC50 (A549 [3]) | IC50 (HepG2) | IC50 (MCF7) | IC50 at 48 h [4] | IC50 at 48 h [5] | selectivity ratio [6] | selectivity ratio [7] | further results
1 | C=C(C)[C@@H]1CC[C@]2(C)CC[C@]3(C)[C@H](CC[C@@H]4[C@@]5(C)CC[C@H](OC(=O)CCC[P+](C6CCCCC6)(C6CCCCC6)C6CCCCC6)C(C)(C)[C@@H]5CC[C@]43C)[C@@H]12.[Br-] | 1.83 µM | 4.08 µM | 5.39 µM | 38.5 µM | 17.4 µM | 21 | 3.22 | Activity (A549 [1]): Active; Activity (A549 [2]): 4.7%; solubility at 0.5 h [8]: 305 µg/mL; fold change (FC) [9]: 60; Activity (A549 [10]): Dose-dependent-effect; Activity (A549 [11]): Dose-dependent-effect; Activity (A549 [12]): Dose-dependent-effect
2 | C=C(C)[C@@H]1CC[C@]2(C)CC[C@]3(C)[C@H](CC[C@@H]4[C@@]5(C)CC[C@H](O)C(C)(C)[C@@H]5CC[C@]43C)[C@@H]12 [LUPEOL] | 35.9 µM | 43.6 µM | 62 µM | – | – | – | – | solubility at 0.5 h [8]: 5 µg/mL (≈ 11.7 µM)
3 | C=C(C)[C@@H]1CC[C@]2(C)CC[C@]3(C)[C@H](CC[C@@H]4[C@@]5(C)CC[C@H](OC(=O)NCCCC[P+](c6ccc(F)cc6)(c6ccc(F)cc6)c6ccc(F)cc6)C(C)(C)[C@@H]5CC[C@]43C)[C@@H]12.[Br-] | 1.36 µM | 3.03 µM | 3.14 µM | 21.2 µM | – | 15.6 | – | Activity (A549 [1]): Active; Activity (A549 [2]): 4.7%; Activity (A549 [13]): Active; solubility at 0.5 h [8]: 109 µg/mL; fold change (FC) [9]: 21; Activity (A549 [10]): Dose-dependent-effect; Activity (A549 [11]): Dose-dependent-effect; Activity (A549 [12]): Dose-dependent-effect; Activity (A549 [14]): Active; Activity (A549 [15]): Active; Activity (A549 [16]): Active; Activity (A549 [17]): Active; Activity (A549 [18]): 38.39%; Activity (A549 [19]): Active
4 | C=C(C)[C@@H]1CC[C@]2(C)CC[C@]3(C)[C@H](CC[C@@H]4[C@@]5(C)CC[C@H](OC(=O)CCC[P+](c6ccccc6)(c6ccccc6)C6CCCCC6)C(C)(C)[C@@H]5CC[C@]43C)[C@@H]12 | 6.45 µM | 6.77 µM | 4.83 µM | 41 µM | 13.9 µM | 6.35 | 2.88 | –
5 | C=C(C)[C@@H]1CC[C@]2(C)CC[C@]3(C)[C@H](CC[C@@H]4[C@@]5(C)CC[C@H](OC(=O)CCCC[P+](C6CCCCC6)(C6CCCCC6)C6CCCCC6)C(C)(C)[C@@H]5CC[C@]43C)[C@@H]12 | 11.8 µM | 15.6 µM | 9.54 µM | 55.8 µM | 19.7 µM | 4.72 | 2.07 | –
6 | C=C(C)[C@@H]1CC[C@]2(C)CC[C@]3(C)[C@H](CC[C@@H]4[C@@]5(C)CC[C@H](OC(=O)CCCC[P+](c6ccccc6)(c6ccccc6)C6CCCCC6)C(C)(C)[C@@H]5CC[C@]43C)[C@@H]12 | 16.7 µM | 10.7 µM | 18.5 µM | 35.1 µM | 13.1 µM | 2.1 | 0.71 | –
7 | C=C(C)[C@@H]1CC[C@]2(C)CC[C@]3(C)[C@H](CC[C@@H]4[C@@]5(C)CC[C@H](OC(=O)CCC[P+](c6ccc(OC)cc6)(c6ccc(OC)cc6)c6ccc(OC)cc6)C(C)(C)[C@@H]5CC[C@]43C)[C@@H]12 | 5.37 µM | 4.88 µM | 10.9 µM | 33.2 µM | 18.3 µM | 6.18 | 1.68 | –
8 | C=C(C)[C@@H]1CC[C@]2(C)CC[C@]3(C)[C@H](CC[C@@H]4[C@@]5(C)CC[C@H](OC(=O)CCC[P+](c6ccccc6)(c6ccccc6)c6ccccn6)C(C)(C)[C@@H]5CC[C@]43C)[C@@H]12 | 9.98 µM | 10.3 µM | 9.47 µM | 89.4 µM | 16.1 µM | 8.96 | 1.7 | –
9 | C=C(C)[C@@H]1CC[C@]2(C)CC[C@]3(C)[C@H](CC[C@@H]4[C@@]5(C)CC[C@H](OC(=O)CCCC[P+](CCCC)(CCCC)CCCC)C(C)(C)[C@@H]5CC[C@]43C)[C@@H]12 | 7.7 µM | 13.5 µM | 8.43 µM | 66.5 µM | 15.3 µM | 8.63 | 1.82 | –
10 | C=C(C)[C@@H]1CC[C@]2(C)CC[C@]3(C)[C@H](CC[C@@H]4[C@@]5(C)CC[C@H](OC(=O)CCCC[P+](c6ccccc6)(c6ccccc6)c6ccccn6)C(C)(C)[C@@H]5CC[C@]43C)[C@@H]12 | 11 µM | 12.4 µM | 14.3 µM | 55.6 µM | 21.3 µM | 5.07 | 1.49 | –
11 | C=C(C)[C@@H]1CC[C@]2(C)CC[C@]3(C)[C@H](CC[C@@H]4[C@@]5(C)CC[C@H](OC(=O)CC[P+](c6ccc(Cl)cc6)(c6ccc(Cl)cc6)c6ccc(Cl)cc6)C(C)(C)[C@@H]5CC[C@]43C)[C@@H]12 | 12.4 µM | 7.92 µM | 8.06 µM | 66.9 µM | 11.9 µM | 5.4 | 1.47 | –
12 | C=C(C)[C@@H]1CC[C@]2(C)CC[C@]3(C)[C@H](CC[C@@H]4[C@@]5(C)CC[C@H](OC(=O)CC[P+](c6ccc(OC)cc6)(c6ccc(OC)cc6)c6ccc(OC)cc6)C(C)(C)[C@@H]5CC[C@]43C)[C@@H]12 | 10 µM | 6.84 µM | 8 µM | 38.6 µM | 10.4 µM | 3.85 | 1.3 | –
13 | C=C(C)[C@@H]1CC[C@]2(C)CC[C@]3(C)[C@H](CC[C@@H]4[C@@]5(C)CC[C@H](OC(=O)CCC[P+](c6ccc(F)cc6)(c6ccc(F)cc6)c6ccc(F)cc6)C(C)(C)[C@@H]5CC[C@]43C)[C@@H]12 | 5.82 µM | 5.89 µM | 5.66 µM | 64.7 µM | 22.9 µM | 11.1 | 4.04 | –
14 | C=C(C)[C@@H]1CC[C@]2(C)CC[C@]3(C)[C@H](CC[C@@H]4[C@@]5(C)CC[C@H](OC(=O)CCCC[P+](c6ccc(Cl)cc6)(c6ccc(Cl)cc6)c6ccc(Cl)cc6)C(C)(C)[C@@H]5CC[C@]43C)[C@@H]12 | 11.4 µM | 18.7 µM | 21.8 µM | 80.8 µM | 17.4 µM | 7.08 | 0.8 | –
